Measured values taken from article PMC12077799, “Fragment-based drug discovery for transthyretin kinetic stabilisers using a novel capillary zone electrophoresis method” (PLOS One, 2025).
Read-outs that look alike come from different tables or passages of the source.

Assays:
[1] = target: T1, Human transthyretin (TTR) thyroxine binding sites (Homo sapiens, UniProt P02766); assay: TTR CZE Free Probe Peak Height Restoration (FPPHR) assay, 8-ANS displacement; conditions: for FPPHR % at 50 μM: compound 50 μM in Running Buffer; for FPPHR % at 100 μM: compound 100 μM in Running Buffer; for change of free 8-ANS peak height with compound in the Running Buffer: in words, concentrations (e.g. Tafamidis 10 µM, Diphenylamine 250 μM, Verapamil 300 µM, Acetazolamide 500 µM)
T1 construct: purchased SCIPAC (Sittingbourne, Kent, UK) P171-1
Protocol: CZE assays development and fragment screening were performed on a Beckman P/ACE MDQ capillary electrophoresis system (Beckman Coulter Inc., Brea, CA) operated by 32 Karat™ software. All capillaries (Polymicro Technologies, Phoenix, AZ) used were internally coated with polyvinyl alcohol and of around 30 cm in length, 75 microns in internal diameter. Capillary temperature was maintained at 20 °C by recirculating fluorinated fluid coolant during electrophoresis. Sample trays and buffer trays temperature were maintained at 4°C and ambient respectively. For every electrophoretic run, the capillary was pressure rinsed and prefilled with electrophoresis buffer also known as background electrolyte (termed as Running Buffer hereafter) before injection. After each electrophoretic run, the capillary was rinsed with Running Buffer and H2O by pressure (20 psi for 1 minute). Three Running Buffers (RB), A: 20 mM Tris pH 7.5, 1 mM KCl, 1.62 mM NaCl; B: 20 mM HEPES pH 7.0, 2 mM CaCl2 and C: 20 mM HEPES pH 7.0, 2 mM CaCl2, 1% DMSO were used. All CE traces were analysed by 32Karat™ Software with a built-in automatic peak integration algorithm.
Control 1 Inject Buffer (IB) containing 30 μM 8-ANS was prepared by mixing 1 μL of 3 mM 8-ANS DMSO stock with 99 μL of Running Buffer B in a 0.2 mL PCR tube. Control 2 Inject Buffer was prepared by mixing 1μL of 3 mM 8-ANS DMSO stock with 20 μL of 100 μM tetrameric TTR stock in Running Buffer B and 79 μL of Running Buffer B. The final concentrations (f/c) were 8-ANS 30 μM, TTR 20 μM and 1% DMSO v/v.
The maximum Free Probe Peak Height (Control 1 Peak Height) was determined by Outlet Injection (see Fig 1) of Control 1 with an injection pressure of 0.5 psi for 5 seconds (equivalent to ≈ 20–30 nL). An identical injection of Control 2 provides the minimum Free Probe Peak Height (Control 2 Peak Height) enabling calculation of % of bound and unbound, i.e., free 8-ANS. To determine the 8-ANS peak height in Control 1 and Control 2, the capillary was prefilled with Buffer C and electrophoresis carried out at 10 kV (Normal Polarity, Fig 1) with UV monitoring at 230 nm. For displacement analysis, ligand DMSO stock was diluted in Buffer B and used to fill the capillary as the Running Buffer. Electrophoresis commenced after injection of Control 2, thus the injected 8-ANS-TTR complex migrates inside a capillary filled with the test ligand. The observed 8-ANS peak height is defined as Sample Peak Height and the displaced 8-ANS can be calculated as:
\% of Free Probe Peak Height Restoration= Sample Peak Height−Control 2 Peak Height/Control 1 Peak Height−Control 2 Peak Height

[2] = target: T2, TTR in undiluted normal human reference plasma (Homo sapiens, UniProt P02766); assay: 125I-T4 displacement assay in neat normal human plasma; type: binding; conditions: neat normal human plasma, 4-parameter logistic fit
T2 construct: The TTR in plasma was immunoprecipitated by sheep anti-human prealbumin polyclonal antibody; tissue Precision Biologic Inc., Nova Scotia, Canada
Text: The assay was adapted from one described previously. Briefly, test ligand and ^125I-T4 (Perkin Elmer Inc., Waltham, MA) were mixed with undiluted normal human reference plasma (Precision Biologic Inc., Nova Scotia, Canada). The TTR in plasma was immunoprecipitated by sheep anti-human prealbumin polyclonal antibody (The Binding Site Group Ltd., Birmingham, UK). The immunoprecipitate was washed with buffer and their radioactivity measured with a 2470 WIZARD automatic gamma counter (Perkin Elmer Inc., Waltham, MA). […] Percentage of total radioligand binding for samples of different ligand concentration was then calculated as follows: […]
To calculate IC50 values, percentage of total radioligand binding at different concentration points were entered in SigmaPlot™ 11.0. Titration curves were done in triplicates with a minimum of 5 data points fitted by 4-Parameter Logistic Function.

[3] = target: T3, Human transthyretin (TTR) (Homo sapiens, UniProt P02766); assay: Co-crystallisation of TTR-ligand complex, X-ray hit confirmation; type: binding; conditions: for Confirmed by X-ray: fragment seen in ligand-omitted difference density at >= 2σ in one or both binding sites, full or partial density
T3 construct: purchased SCIPAC (Sittingbourne, Kent, UK) P171-1
Protocol: Crystals were grown by vapor diffusion using a published crystallisation cocktail (100 mM HEPES pH 7.5, 200 mM CaCl2, 28% v/v PEG400) at 21 °C [29]. The hanging drop contained 1 μL of crystallisation cocktail, 1 μL of diluted ligand and 1 μL of TTR protein solution (85 μM). […] Crystals were harvested and flash cooled in a N2 cryostream or dipped into liquid ethane without cryoprotectant. Data was collected at Diamond Light Source (Oxon, UK) beamline I24, I04 or I04-1 (Pilatus 6M or ADSC Q315) or the European Synchrotron Radiation Facility (ESRF, Grenoble, France) beamline ID29 (Pilatus 6M-F) or in-house (Bruker X8 Diffractometer with APEXII CCD detector). Crystal unit cell was initially indexed by software MOSFLM [30] and LABELIT [31] within the EDNA [32] automatic data processing workflow. Diffraction image integration was performed by XDS [33] and reflection intensities were scaled by SCALA [34] or by PROTEUM2 if collected in-house. Phases were obtained by molecular replacement method using PHASER [35], 1DVQ from the Protein Data Bank (PDB) was used as the search model. Atomic positions of the initial model were refined by REFMAC5 [36]. Model building and ligand fitting was completed using COOT [37]. Model graphics were generated using CCP4MG [38]. Crystallographic statistics of all structures can be found in S4 Table.

[4] = read-out: Mean 125I-T4 IC50 ± SD (N = 3)

**Q.** For `Clc1n[nH]c2ccccc12` [Compound A00014954], which “FPPHR % at 50 μM” value ([1]; 10% minimum for a binder) is on record?
**A.** 24.84%

**Q.** Which “FPPHR % at 50 μM” value ([1]; 10% minimum for a binder) does the source give for `c1cc2[nH]ccc2cn1` [Compound 218458] here?
**A.** 5.03%

**Q.** `O=C(O)c1ccccc1Nc1ccccc1` [N-Phenylanthranilic Acid, reference compound] was tested. Which IC50 [2] did it give?
**A.** 180 ± 61.8 µM

**Q.** What about the “ligand electron density, binding sites occupied in co-crystal structure” value ([3]; in words) of the same molecule?
**A.** occupied both sites

**Q.** What does the source list for `Nc1nc(-c2cccc3cccnc23)c2cn[nH]c2n1` [Compound 96299361]?
**A.** IC50 [2, 4]: 105 ± 16.8 µM; Confirmed by X-ray [3]: Yes 9H7M; FPPHR % tested at 10 µM ([1]; compound 10 µM in Running Buffer, 10% minimum for a binder): 23.20% tested at 10 µM

**Q.** `c1ccc2[nH]ccc2c1` [SFL001004] was tested. Which “FPPHR % at 100 μM” value ([1]; 10% minimum for a binder) did it give?
**A.** 17.18%

**Q.** With `Nc1[nH]ncc1-c1ccc(Cl)cc1` [Compound 242212] as the molecule, how does the “FPPHR % at 50 μM” value ([1]; 10% minimum for a binder) read?
**A.** 25.65%

**Q.** How did the “change of free 8-ANS peak height with compound in the Running Buffer” value (“change of free 8-ANS peak height” for short) [1] turn out when `O=C(O)c1ccc2nc(-c3cc(Cl)cc(Cl)c3)oc2c1` [Tafamidis, reference compound] was run?
**A.** significant free 8-ANS peak height increase

**Q.** `CC(=O)Nc1nnc(S(N)(=O)=O)s1` [Acetazolamide, reference compound] was tested. Which “change of free 8-ANS peak height” value [1] did it give?
**A.** changed minimally

**Q.** For `Nc1n[nH]c2nccc(-c3ccccc3)c12` [CDS014361], which IC50 [2, 4] is on record?
**A.** 100 ± 11 µM

**Q.** What about the “Confirmed by X-ray” value [3] of the same molecule?
**A.** Yes 9H7L

**Q.** What about the “FPPHR % at 50 μM” value ([1]; 10% minimum for a binder) of the same molecule?
**A.** 36.17% tested at 50 µM

**Q.** How did the “FPPHR % at 50 μM” value ([1]; 10% minimum for a binder) turn out when `CN(C)Cc1c[nH]c2ncccc12` [SFL001519] was run?
**A.** 1.88%

**Q.** Which results are given for `Cc1n[nH]c(N)c1-c1ccccc1` [SFL001561]?
**A.** IC50 [2, 4]: 488 ± 107 µM; Confirmed by X-ray [3]: Yes 9H7J

**Q.** Which “FPPHR % at 50 μM” value ([1]; 10% minimum for a binder) does the source give for `COC(=O)c1c[nH]c2ccccc12` [Compound A00010562] here?
**A.** 16.40%

**Q.** With `COc1ccc(CCN(C)CCCC(C#N)(c2ccc(OC)c(OC)c2)C(C)C)cc1OC` (stereo not drawn) [Verapamil, reference compound] as the molecule, how does the “change of free 8-ANS peak height” value [1] read?
**A.** changed minimally

**Q.** Which “FPPHR % at 50 μM” value ([1]; 10% minimum for a binder) does the source give for `Nc1[nH]ncc1-c1ccccc1` [OR1969] here?
**A.** 13.28%

**Q.** How did the “FPPHR % at 50 μM” value ([1]; 10% minimum for a binder) turn out when `Cc1nn(C)c(N)c1-c1ccccc1` [SFL001562] was run?
**A.** 7.42%

**Q.** For `Nc1cc(Cl)c(O)c(Cl)c1` [4-Amino-2,6-Dichlorophenol, reference compound], which “change of free 8-ANS peak height” value [1] is on record?
**A.** significant free 8-ANS peak height increase

**Q.** Which “FPPHR % at 50 μM” value ([1]; 10% minimum for a binder) does the source give for `Clc1cc2cc[nH]c2cn1` [Compound 217869] here?
**A.** 12.83%

**Q.** With `c1ncc2[nH]cnc2n1` [SFL001639] as the molecule, how does the “FPPHR % at 100 μM” value ([1]; 10% minimum for a binder) read?
**A.** 5.29%
